Several values for one entry are separate records, joined by “and”; a condition that tells them apart may be missing. Identical values can stand only once.

Broadly, the pIC50 is the negative decadic logarithm of the IC50, by convention in mol/L. Higher therefore signals a small IC50. Usually IC50 stands for the midpoint of a concentration-inhibition curve. A low value points to greater potency.

A short description of test [1]: Inhibition of squalene-hopene cyclase.
The target in the next test is T1, Lanosterol synthase (Homo sapiens, UniProt P48449).
T1 sequence (P48449 whole entry): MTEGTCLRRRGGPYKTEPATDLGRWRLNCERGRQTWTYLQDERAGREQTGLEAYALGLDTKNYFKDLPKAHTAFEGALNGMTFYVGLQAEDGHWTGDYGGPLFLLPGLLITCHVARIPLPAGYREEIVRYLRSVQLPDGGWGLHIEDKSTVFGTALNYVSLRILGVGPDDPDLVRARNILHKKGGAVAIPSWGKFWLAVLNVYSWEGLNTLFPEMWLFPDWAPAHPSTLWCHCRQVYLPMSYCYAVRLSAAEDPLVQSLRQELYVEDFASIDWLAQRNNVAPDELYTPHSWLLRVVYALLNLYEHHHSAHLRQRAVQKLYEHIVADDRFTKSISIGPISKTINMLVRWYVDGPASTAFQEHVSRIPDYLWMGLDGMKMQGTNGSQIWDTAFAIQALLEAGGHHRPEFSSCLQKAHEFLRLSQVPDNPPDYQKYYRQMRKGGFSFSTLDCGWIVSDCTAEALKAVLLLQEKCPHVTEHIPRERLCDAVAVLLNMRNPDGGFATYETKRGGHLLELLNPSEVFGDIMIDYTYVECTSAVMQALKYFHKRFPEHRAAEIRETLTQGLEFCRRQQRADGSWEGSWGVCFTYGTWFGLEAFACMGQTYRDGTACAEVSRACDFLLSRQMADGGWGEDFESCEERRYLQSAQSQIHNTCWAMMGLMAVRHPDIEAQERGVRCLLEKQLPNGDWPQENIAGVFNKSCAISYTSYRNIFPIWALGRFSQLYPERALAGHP
The test can be described thus: Inhibition of oxidosqualene cyclase.

As to `CN(CCCCCCOC1CCN(C(=O)c2ccc(F)cc2)CC1)C1CC1`, the pIC50 in test [1] worked out at 6.12.
On the same count and under the same terms, next, `CN(C[C@H]1C[C@@H]1COc1ccc(C(=O)c2ccc(Br)cc2)c(F)c1)C1CC1`: 7.3; `CN(CCCCCCOc1ccc(C(=O)c2ccc(Br)cc2)c(F)c1)C1CC1`: 7.42.
`C=CCN(C[C@H]1C[C@@H]1COc1ccc(C(=O)c2ccc(Br)cc2)cc1)C1CC1` showed an IC50 at Lanosterol synthase of 6.46 nM.
As for `C=CCN(C)CCCCCCOc1ccc2c(-c3ccc(Br)cc3)noc2c1`, the pIC50 in test [1] is on record as 7.12.
The same measure, in the same setting: next, `C=CCN(C)CCCCCCOc1ccc(C(=O)c2ccc(Br)cc2)cc1`: 7.02.
As for `CN(CCCO)CCCCCCOc1ccc(C(=O)c2ccc(Br)cc2)cc1`, the pIC50 in test [1] is 6.55. In addition, the midpoint of inhibition against Lanosterol synthase, the IC50, lay at 28.8 nM.
Consider `C=CCN(C)CCCCCCOc1ccc2c(c1)c(C)nn2C`, for which the pIC50 in test [1] was 6.54 and 6.48. Besides, the IC50 against Lanosterol synthase is 19.5 nM.
For `CN(C[C@H]1C[C@@H]1COc1ccc(C(=O)c2ccc(Br)cc2)cc1)C1CC1`, in test [1], the negative-log IC50 (pIC50) amounted to 7.21.
The same measure, in the same setting: the figure for `C=CCN(C)C/C=C/COc1ccc(C(=O)c2ccc(Br)cc2)cc1` is 7.4; for `C=CCN(C)C/C=C/COc1ccc(-c2nsc3cc(Br)ccc23)cc1` it is 6.89; for `C=CCN(C)C/C=C/COc1ccc2c(-c3ccc(Br)cc3)csc2c1` it is 7.12.
The compound `C=CCN(C)C/C=C/COc1ccc2c(-c3ccc(Br)cc3)noc2c1` registered a negative logarithm of the IC50 (pIC50) in test [1] of 7.31.
The same measure, in the same setting: next, `C=CCN(C)CCCCCCOC1CCN(C(=O)c2ccc(F)cc2)CC1`: 5.92; `C=CCN(C)CCCCCCOc1ccc2c(c1)CON=C2c1ccc(Br)cc1`: 6.76.

These data come from ChEMBL document CHEMBL1140957, “GRIND-based 3D-QSAR to predict inhibitory activity for similar enzymes, OSC and SHC” (Eur J Med Chem, 2008).
